Results from PubChem BioAssay AID1963845 (Molecular Pharmacology Branch, DTP, NCI, 2024).

Tested on: 429239-143-T-J1-PDC complex spheroid viability
Assay: Anticancer human tumor 429239-143-T-J1-PDC patient-derived small cell lung carcinoma cell line growth inhibition [POLQ]
Conditions: for IC50: curve of first compound; for viability, T/C: stronger effect = lower value
Outline: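 PDC + HUVEC + MSC complex spheroids; POLQ inhibitors ± partner drugs; top conc. at/near clinical Cmax, else 10 microM (SN-38 1 microM), half-log dilutions; 37 degrees C, 5% CO2.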

[1] = second compound 0.0316 µM, first compound 0.0316 µM
[2] = second compound 0.0316 µM, first compound 0.1 µM
[3] = second compound 0.0316 µM, first compound 0.316 µM
[4] = second compound 0.0316 µM, first compound 1 µM
[5] = second compound 0.0316 µM, first compound 3.16 µM
[6] = second compound 0.0316 µM, first compound 10 µM
[7] = second compound 0.1 µM, first compound 0.0316 µM
[8] = second compound 0.1 µM, first compound 0.1 µM
[9] = second compound 0.1 µM, first compound 0.316 µM
[10] = second compound 0.1 µM, first compound 1 µM
[11] = second compound 0.1 µM, first compound 3.16 µM
[12] = second compound 0.1 µM, first compound 10 µM
[13] = second compound 0.316 µM, first compound 0.0316 µM
[14] = second compound 0.316 µM, first compound 0.1 µM
[15] = second compound 0.316 µM, first compound 0.316 µM
[16] = second compound 0.316 µM, first compound 1 µM
[17] = second compound 0.316 µM, first compound 3.16 µM
[18] = second compound 0.316 µM, first compound 10 µM
[19] = second compound 1 µM, first compound 0.0316 µM
[20] = second compound 1 µM, first compound 0.1 µM
[21] = second compound 1 µM, first compound 0.316 µM
[22] = second compound 1 µM, first compound 1 µM
[23] = second compound 1 µM, first compound 3.16 µM
[24] = second compound 1 µM, first compound 10 µM
[25] = second compound 3.16 µM, first compound 0.0316 µM
[26] = second compound 3.16 µM, first compound 0.1 µM
[27] = second compound 3.16 µM, first compound 0.316 µM
[28] = second compound 3.16 µM, first compound 1 µM
[29] = second compound 3.16 µM, first compound 3.16 µM
[30] = second compound 3.16 µM, first compound 10 µM
[31] = second compound 10 µM, first compound 0.0316 µM
[32] = second compound 10 µM, first compound 0.1 µM
[33] = second compound 10 µM, first compound 0.316 µM
[34] = second compound 10 µM, first compound 1 µM
[35] = second compound 10 µM, first compound 3.16 µM
[36] = second compound 10 µM, first compound 10 µM
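Also: luminescence signal used as surrogate measure of viable cells; spheroids exposed to compounds for seven days before readout.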
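For viability, T/C in this document: 100% = DMSO vehicle control viability as luminescence relative to vehicle.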

CC(=O)O[C@H]1C(=O)[C@@]2(C)[C@H]([C@H](OC(=O)c3ccccc3)[C@]3(O)C[C@H](OC(=O)[C@H](O)[C@@H](NC(=O)c4ccccc4)c4ccccc4)C(C)=C1C3(C)C)[C@]1(OC(C)=O)CO[C@@H]1C[C@@H]2O + Cc1cccc(N(C)C(=O)C2C(O)CCN2c2nc(C)cc(C(F)(F)F)c2C#N)c1
IC50 (second compound 0.0316 µM): 0.0134 µM | IC50 (second compound 0.1 µM): 0.0129 µM | IC50 (second compound 0.316 µM): 0.0116 µM | IC50 (second compound 1 µM): 0.0142 µM | IC50 (second compound 3.16 µM): 0.0132 µM | IC50 (second compound 10 µM): 0.0125 µM | viability, T/C (second compound 0.0316 µM, first compound 0.00949 µM): 63.2% | viability, T/C (second compound 0.0316 µM, first compound 0.03 µM): 14.9% | viability, T/C (second compound 0.0316 µM, first compound 0.0949 µM): 11.6% | viability, T/C (second compound 0.0316 µM, first compound 0.3 µM): 19.4% | viability, T/C (second compound 0.0316 µM, first compound 0.949 µM): 24.7% | viability, T/C (second compound 0.0316 µM, first compound 3 µM): 27.8% | viability, T/C (second compound 0.1 µM, first compound 0.00949 µM): 60.9% | viability, T/C (second compound 0.1 µM, first compound 0.03 µM): 15.6% | viability, T/C (second compound 0.1 µM, first compound 0.0949 µM): 18.6% | viability, T/C (second compound 0.1 µM, first compound 0.3 µM): 18.5% | viability, T/C (second compound 0.1 µM, first compound 0.949 µM): 23% | viability, T/C (second compound 0.1 µM, first compound 3 µM): 24.6% | viability, T/C (second compound 0.316 µM, first compound 0.00949 µM): 56.6% | viability, T/C (second compound 0.316 µM, first compound 0.03 µM): 17.8% | viability, T/C (second compound 0.316 µM, first compound 0.0949 µM): 12.7% | viability, T/C (second compound 0.316 µM, first compound 0.3 µM): 16.9% | viability, T/C (second compound 0.316 µM, first compound 0.949 µM): 18.8% | viability, T/C (second compound 0.316 µM, first compound 3 µM): 23.9% | viability, T/C (second compound 1 µM, first compound 0.00949 µM): 66.5% | viability, T/C (second compound 1 µM, first compound 0.03 µM): 14.6% | viability, T/C (second compound 1 µM, first compound 0.0949 µM): 17.8% | viability, T/C (second compound 1 µM, first compound 0.3 µM): 17.1% | viability, T/C (second compound 1 µM, first compound 0.949 µM): 22.7% | viability, T/C (second compound 1 µM, first compound 3 µM): 24.7% | viability, T/C (second compound 3.16 µM, first compound 0.00949 µM): 62.5% | viability, T/C (second compound 3.16 µM, first compound 0.03 µM): 17% | viability, T/C (second compound 3.16 µM, first compound 0.0949 µM): 14.6% | viability, T/C (second compound 3.16 µM, first compound 0.3 µM): 17.2% | viability, T/C (second compound 3.16 µM, first compound 0.949 µM): 21.7% | viability, T/C (second compound 3.16 µM, first compound 3 µM): 25.1% | viability, T/C (second compound 10 µM, first compound 0.00949 µM): 61.2% | viability, T/C (second compound 10 µM, first compound 0.03 µM): 12.5% | viability, T/C (second compound 10 µM, first compound 0.0949 µM): 17.8% | viability, T/C (second compound 10 µM, first compound 0.3 µM): 14.6% | viability, T/C (second compound 10 µM, first compound 0.949 µM): 18% | viability, T/C (second compound 10 µM, first compound 3 µM): 16%

C=CC(=O)N1CCN(c2nc(=O)n(-c3c(C)ccnc3C(C)C)c3nc(-c4c(O)cccc4F)c(F)cc23)C(C)C1 (stereo unspecified) + Cc1cccc(N(C)C(=O)C2C(O)CCN2c2nc(C)cc(C(F)(F)F)c2C#N)c1
IC50 (second compound 0.0316 µM): > 10 µM | IC50 (second compound 0.1 µM): > 10 µM | IC50 (second compound 0.316 µM): > 10 µM | IC50 (second compound 1 µM): > 10 µM | IC50 (second compound 3.16 µM): > 10 µM | IC50 (second compound 10 µM): > 10 µM | viability, T/C [1]: 97.2% | viability, T/C [2]: 85% | viability, T/C [3]: 102% | viability, T/C [4]: 97.5% | viability, T/C [5]: 96% | viability, T/C [6]: 98.7% | viability, T/C [7]: 93.2% | viability, T/C [8]: 96.8% | viability, T/C [9]: 108% | viability, T/C [10]: 89.8% | viability, T/C [11]: 92.9% | viability, T/C [12]: 109% | viability, T/C [13]: 105% | viability, T/C [14]: 94.3% | viability, T/C [15]: 107% | viability, T/C [16]: 97.8% | viability, T/C [17]: 108% | viability, T/C [18]: 116% | viability, T/C [19]: 88.8% | viability, T/C [20]: 93.4% | viability, T/C [21]: 104% | viability, T/C [22]: 88.5% | viability, T/C [23]: 103% | viability, T/C [24]: 104% | viability, T/C [25]: 95.5% | viability, T/C [26]: 88% | viability, T/C [27]: 86.6% | viability, T/C [28]: 101% | viability, T/C [29]: 104% | viability, T/C [30]: 122% | viability, T/C [31]: 98.8% | viability, T/C [32]: 85.3% | viability, T/C [33]: 94.4% | viability, T/C [34]: 97.9% | viability, T/C [35]: 102% | viability, T/C [36]: 100%

CCCS(=O)(=O)Nc1ccc(F)c(C(=O)c2c[nH]c3ncc(-c4ccc(Cl)cc4)cc23)c1F + Nc1ccc(C#CCN(C(=O)Cc2ncc(C(F)(F)F)cc2C(F)(F)F)c2ccc(F)cc2)nn1
IC50 (second compound 0.0316 µM): > 10 µM | IC50 (second compound 0.1 µM): > 10 µM | IC50 (second compound 0.316 µM): > 10 µM | IC50 (second compound 1 µM): > 10 µM | IC50 (second compound 3.16 µM): > 10 µM | IC50 (second compound 10 µM): > 10 µM | viability, T/C [1]: 99% | viability, T/C [2]: 111% | viability, T/C [3]: 101% | viability, T/C [4]: 110% | viability, T/C [5]: 104% | viability, T/C [6]: 93.3% | viability, T/C [7]: 106% | viability, T/C [8]: 102% | viability, T/C [9]: 96.9% | viability, T/C [10]: 100% | viability, T/C [11]: 98.3% | viability, T/C [12]: 88.7% | viability, T/C [13]: 105% | viability, T/C [14]: 108% | viability, T/C [15]: 106% | viability, T/C [16]: 106% | viability, T/C [17]: 108% | viability, T/C [18]: 93.4% | viability, T/C [19]: 114% | viability, T/C [20]: 99.5% | viability, T/C [21]: 97.4% | viability, T/C [22]: 104% | viability, T/C [23]: 112% | viability, T/C [24]: 91% | viability, T/C [25]: 105% | viability, T/C [26]: 104% | viability, T/C [27]: 94.6% | viability, T/C [28]: 102% | viability, T/C [29]: 101% | viability, T/C [30]: 94.9% | viability, T/C [31]: 116% | viability, T/C [32]: 98.3% | viability, T/C [33]: 105% | viability, T/C [34]: 108% | viability, T/C [35]: 102% | viability, T/C [36]: 89.1%
